Data as given in US10183962B2, “Synthetic oligomers of Neisseria meningitis serogroup X and process of preparing them” (MSD WELLCOME TRUST HILLEMAN LA[…]. LTD., priority 2014, dated 2019).

System: rabbit antiserum against N. meningitidis serogroup X (anti-Men-X antibodies binding to bacterial Men-X polysaccharide)
Assay: competition (inhibition) ELISA, antigenicity of synthetic Men-X tetramer and its TT conjugate
Conditions: antigen at 10-1000 μg oligosaccharide/ml; antiserum diluted eight thousand fold; relative to no antigen control; FIG. 1, alpha anomer, triplicate

For “6-Aminohexyl (2-acetamido-2-deoxy-α-D-glucopyranosyl phosphate)-(1→4)-(2-acetamido-2-deoxy-α-D-glucopyranosyl phosphate)-(1→4)-(2-acetamido-2-deoxy-α-D-glucopyranosyl phosphate)-(1→4)-2-acetamido-2-deoxy-α-D-glucopyranoside, tris-sodium salt [Men X Tetramer 1]”, the “percentage inhibition of binding of anti-Men-X antibodies to bacterial Men-X polysaccharide coated on plate” value was “up to 68%”.
